Results from patent publication US10941158B2, “Pyrazole ACC inhibitors and uses thereof” (Gilead Apollo, LLC, priority 2015, dated 2021).
Values after ≈ are worked out from the molar mass of the structure shown. Read-outs that look alike come from different tables or passages of the source.

What was measured:
[1] = test system: Septoria tritici (St); test: Growth inhibition assay of fungal pathogens; assay type: cell-based; details: 48 hours; for IC90: Zymoseptoria tritici, read-out: Concentration at 90% Inhibition St
How it was run: (§1)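 Compounds in DMSO tested at final 50, 10, 2 ppm or 2, 0.4, 0.08 ppm. Spores in 17% V8 medium, or 1.5 mm mycelial plugs in ¼ PDB for R. solani, incubated with compound. OD600 and visual ratings at 48 h versus 2% DMSO control gave percent growth inhibition.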

[2] = test system: Botrtyis cinerea (Bc); test: Growth inhibition assay of fungal pathogens; assay type: cell-based; details: 48 h, read-out: Concentration at 90% Inhibition Bc
How it was run: (§2)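 Percent growth inhibition was derived from 48 h OD600 and visual scores relative to 2% DMSO, with blank background subtraction. Fungi were grown from spores in 17% V8 liquid medium, R. solani from 1.5 mm plugs in ¼ PDB, with compound at final 50/10/2 or 2/0.4/0.08 ppm.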

[3] = test system: Rhizoctonia solani (Rs); test: Growth inhibition assay of fungal pathogens; assay type: cell-based; details: 48 h, read-out: Concentration at 90% Inhibition Rs
How it was run: as §2

[4] = test system: Collectotrichum graminicola (Cg); test: Growth inhibition assay of fungal pathogens; assay type: cell-based; details: 48 h, read-out: Concentration at 90% Inhibition Cg
How it was run: as §1

[5] = test system: Fusarium moniliforme (Fm); test: Growth inhibition assay of fungal pathogens; assay type: cell-based; details: Fusarium verticillioides, 48 h, 48 hours, read-out: Concentration at 90% Inhibition Fm
How it was run: as §2

[6] = test system: Fusarium virguliforme (Fv); test: Growth inhibition assay of fungal pathogens; assay type: cell-based; details: 48 h, 48 hours, read-out: Concentration at 90% Inhibition Fv
How it was run: as §1

[7] = test system: Diplodia maydis (Dm); test: Growth inhibition assay of fungal pathogens; assay type: cell-based; details: Stenocarpella maydis, 48 h, read-out: Concentration at 90% Inhibition Dm
How it was run: as §2

[8] = test system: Phytophthora capsici (Pc); test: Growth inhibition assay of fungal pathogens; assay type: cell-based; details: 48 hours; for IC90: Phytophthora capsici, read-out: Concentration at 90% Inhibition Pc
How it was run: as §1

[9] = target: fungal (fACC2) ACC2 (UniProt Q00955); details: read-out: fACC2 IC50; fungal ACC2, ADP-Glo
Experimental: An exemplary procedure for the in vitro ACC inhibition assay, which can be used to determine the inhibitory action of compounds of the invention toward either human (hACC2) or fungal (fACC2) ACC2, follows. The ADP-Glo™ Kinase Assay kit from Promega was used. The ADP-Glo™ Kinase Assay is a luminescent ADP detection assay to measure enzymatic activity by quantifying the amount of ADP produced during an enzyme reaction. The assay is performed in two steps; first, after the enzyme reaction, an equal volume of ADP-Glo™ Reagent is added to terminate the reaction and deplete the remaining ATP. Second, the Kinase Detection Reagent is added to simultaneously convert ADP to ATP and allow the newly synthesized ATP to be measured using a luciferase/luciferin reaction. Luminescence can be correlated to ADP concentrations by using an ATP-to-ADP conversion curve. The detailed procedure is as follows. 50 μL of the compound being tested (600 μM in DMSO) was added to a 384-well dilution plate. The compound was diluted 1:3 in succession in DMSO for each row for 11 wells. 0.5 μL ACC2 working solution was added to 384-well white Optiplate assay plate. 0.5 μL diluted compound solution in each column from step 2 was added to assay plate, each row containing 2 replicates. […] The plates were incubated at room temperature for 15 minutes. 5 μL substrate working solution was added to each well to initiate reaction. Final ACC2 reaction concentrations consist of: 5 nM ACC2, 20 μM ATP, 20 μM acetyl-CoA, 12 mM NaHCO3, 0.01% Brij35, 2 mM DTT, 5% DMSO, test compound concentrations: 30 μM, 10 μM, 3.33 μM, 1.11 μM, 0.37 μM, 0.123 μM, 0.0411 μM, 0.0137 μM, 0.00457 μM, 0.00152 μM, and 0.00051 μM. Plates were incubated at room temperature for 60 minutes. 10 μL ADP glo reagent was added. Plates were incubated at room temperature for 40 minutes. 20 μL kinase detection reagent was added. Plates were incubated at room temperature for 40 minutes, and then read on a Perkin Elmer EnVision 2104 plate reader for luminescence as Relative Light Units (RLU).
Data for each concentration, as well as the positive and negative controls were averaged, and the standard deviation calculated. Percent inhibition was calculated by the formula: 100×(average negative control−compound)/(average negative control−average positive control). The IC50 for each compound was calculated by fitting the data with a non-linear regression equation: Y=Bottom+(Top-Bottom)/(1+10^((Log IC50−X)*Hill Slope)), where X is the log of compound concentration and Y is percent inhibition.
Compounds having an activity designated as “AA” provided an IC50 0.0006-0.003 μM; provided an “A” provided an IC50 0.003-0.01 μM; compounds having an activity designated as “B” provided an IC50 0.01-0.04 μM; and compounds having an activity designated as “C” provided an IC50>0.04 μM IC50. “NA” stands for “not assayed.”

[10] = target: human (hACC2) ACC2 (Homo sapiens, UniProt O00763); test: In vitro Acetyl-CoA Carboxylase (ACC) inhibition assay (ADP-Glo), hACC2; assay type: biochemical
Experimental: The detailed procedure is as follows. […] 10 μL ADP glo reagent was added. […] 20 μL kinase detection reagent was added.
“NA” stands for “not assayed.”

[11] = test system: C. krusei ATCC 6258; test: Anti-Fungal (Candida) Activity Assay, broth microtiter MIC; assay type: cell-based; details: Pichia kudriavzevii, ATCC6258; 3 replicates, MIC recorded at 48 h; read-out: MIC C. krusei ATCC 6258
How it was run: (§3)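 Visual 48 h MIC endpoints are reported. Plates followed CLSI M27-A3 in RPMI 1640 plus MOPS.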

[12] = test system: C. parapsilosis ATCC 22019; test: as above; assay type: cell-based; details: Lodderomyces parapsilosis, ATCC22019; 3 replicates, MIC recorded at 48 h; read-out: MIC C. parapsilosis ATCC 22019
How it was run: as §3

[13] = test system: C. albicans ATCC 90028; test: as above; assay type: cell-based; details: ATCC90028, 3 replicates, MIC recorded at 48 h, read-out: MIC C. albicans ATCC 90028
How it was run: as §3

Sequence of human (hACC2) ACC2 (O00763 whole entry): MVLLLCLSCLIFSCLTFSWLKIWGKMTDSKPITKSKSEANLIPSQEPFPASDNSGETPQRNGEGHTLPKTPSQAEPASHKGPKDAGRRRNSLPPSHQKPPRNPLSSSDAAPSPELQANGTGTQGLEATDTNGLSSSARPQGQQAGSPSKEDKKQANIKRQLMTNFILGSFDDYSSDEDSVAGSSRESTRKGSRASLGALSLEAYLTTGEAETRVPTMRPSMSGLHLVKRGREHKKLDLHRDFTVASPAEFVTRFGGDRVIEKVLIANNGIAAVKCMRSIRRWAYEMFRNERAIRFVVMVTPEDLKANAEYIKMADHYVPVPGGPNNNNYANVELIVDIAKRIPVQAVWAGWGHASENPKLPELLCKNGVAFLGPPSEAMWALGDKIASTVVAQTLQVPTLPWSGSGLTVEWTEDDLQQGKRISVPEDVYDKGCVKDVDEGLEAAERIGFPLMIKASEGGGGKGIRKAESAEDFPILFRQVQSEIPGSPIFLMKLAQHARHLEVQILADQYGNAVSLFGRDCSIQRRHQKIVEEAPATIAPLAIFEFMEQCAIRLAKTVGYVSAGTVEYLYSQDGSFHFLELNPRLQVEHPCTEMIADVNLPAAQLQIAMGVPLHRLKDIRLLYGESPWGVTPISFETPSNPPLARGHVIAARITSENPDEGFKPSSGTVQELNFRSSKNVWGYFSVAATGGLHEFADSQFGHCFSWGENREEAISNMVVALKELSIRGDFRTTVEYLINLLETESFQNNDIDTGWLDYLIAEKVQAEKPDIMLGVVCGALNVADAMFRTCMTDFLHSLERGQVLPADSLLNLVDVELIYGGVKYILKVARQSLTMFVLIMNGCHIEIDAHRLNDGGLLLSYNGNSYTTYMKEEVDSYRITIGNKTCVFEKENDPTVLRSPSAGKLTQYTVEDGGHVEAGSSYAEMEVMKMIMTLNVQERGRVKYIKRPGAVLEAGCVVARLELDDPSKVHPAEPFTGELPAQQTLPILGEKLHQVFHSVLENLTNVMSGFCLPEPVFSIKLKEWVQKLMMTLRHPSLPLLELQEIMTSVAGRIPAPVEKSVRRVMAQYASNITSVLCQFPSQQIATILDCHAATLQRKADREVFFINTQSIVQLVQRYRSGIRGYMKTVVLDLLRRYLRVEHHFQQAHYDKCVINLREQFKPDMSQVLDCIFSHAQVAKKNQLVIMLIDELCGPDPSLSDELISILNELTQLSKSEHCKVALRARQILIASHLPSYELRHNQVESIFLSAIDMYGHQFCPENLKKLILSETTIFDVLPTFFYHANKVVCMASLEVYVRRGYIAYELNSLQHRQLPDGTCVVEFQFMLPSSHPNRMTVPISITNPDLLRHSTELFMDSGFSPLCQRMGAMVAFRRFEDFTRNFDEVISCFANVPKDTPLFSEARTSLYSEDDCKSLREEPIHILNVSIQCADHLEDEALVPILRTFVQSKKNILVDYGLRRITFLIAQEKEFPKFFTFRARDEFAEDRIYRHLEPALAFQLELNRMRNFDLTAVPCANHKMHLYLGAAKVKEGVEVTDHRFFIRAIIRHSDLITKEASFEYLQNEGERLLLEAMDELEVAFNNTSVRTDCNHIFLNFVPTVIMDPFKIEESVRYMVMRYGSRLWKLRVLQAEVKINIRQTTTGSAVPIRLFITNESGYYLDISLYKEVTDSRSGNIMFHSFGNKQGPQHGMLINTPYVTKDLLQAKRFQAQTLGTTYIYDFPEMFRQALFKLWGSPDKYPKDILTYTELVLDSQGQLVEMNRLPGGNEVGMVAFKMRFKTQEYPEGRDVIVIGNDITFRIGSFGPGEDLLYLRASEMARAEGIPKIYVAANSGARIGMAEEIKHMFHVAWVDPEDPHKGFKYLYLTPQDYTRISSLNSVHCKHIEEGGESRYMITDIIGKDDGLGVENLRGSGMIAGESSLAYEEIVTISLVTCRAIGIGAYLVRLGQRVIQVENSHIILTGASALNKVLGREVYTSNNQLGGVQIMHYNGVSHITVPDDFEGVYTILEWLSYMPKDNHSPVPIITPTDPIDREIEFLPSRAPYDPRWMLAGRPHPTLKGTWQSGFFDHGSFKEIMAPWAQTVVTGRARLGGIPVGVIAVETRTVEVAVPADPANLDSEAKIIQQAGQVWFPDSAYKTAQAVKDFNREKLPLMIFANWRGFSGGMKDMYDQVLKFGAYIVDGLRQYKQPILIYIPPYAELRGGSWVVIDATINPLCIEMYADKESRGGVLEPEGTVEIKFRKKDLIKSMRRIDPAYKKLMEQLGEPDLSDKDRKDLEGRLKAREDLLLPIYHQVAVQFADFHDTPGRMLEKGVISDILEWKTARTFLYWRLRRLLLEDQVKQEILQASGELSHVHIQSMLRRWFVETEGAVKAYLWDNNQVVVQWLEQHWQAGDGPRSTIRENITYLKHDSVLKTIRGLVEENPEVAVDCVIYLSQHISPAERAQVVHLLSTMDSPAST
Sequence of fungal (fACC2) ACC2 (Q00955 whole entry): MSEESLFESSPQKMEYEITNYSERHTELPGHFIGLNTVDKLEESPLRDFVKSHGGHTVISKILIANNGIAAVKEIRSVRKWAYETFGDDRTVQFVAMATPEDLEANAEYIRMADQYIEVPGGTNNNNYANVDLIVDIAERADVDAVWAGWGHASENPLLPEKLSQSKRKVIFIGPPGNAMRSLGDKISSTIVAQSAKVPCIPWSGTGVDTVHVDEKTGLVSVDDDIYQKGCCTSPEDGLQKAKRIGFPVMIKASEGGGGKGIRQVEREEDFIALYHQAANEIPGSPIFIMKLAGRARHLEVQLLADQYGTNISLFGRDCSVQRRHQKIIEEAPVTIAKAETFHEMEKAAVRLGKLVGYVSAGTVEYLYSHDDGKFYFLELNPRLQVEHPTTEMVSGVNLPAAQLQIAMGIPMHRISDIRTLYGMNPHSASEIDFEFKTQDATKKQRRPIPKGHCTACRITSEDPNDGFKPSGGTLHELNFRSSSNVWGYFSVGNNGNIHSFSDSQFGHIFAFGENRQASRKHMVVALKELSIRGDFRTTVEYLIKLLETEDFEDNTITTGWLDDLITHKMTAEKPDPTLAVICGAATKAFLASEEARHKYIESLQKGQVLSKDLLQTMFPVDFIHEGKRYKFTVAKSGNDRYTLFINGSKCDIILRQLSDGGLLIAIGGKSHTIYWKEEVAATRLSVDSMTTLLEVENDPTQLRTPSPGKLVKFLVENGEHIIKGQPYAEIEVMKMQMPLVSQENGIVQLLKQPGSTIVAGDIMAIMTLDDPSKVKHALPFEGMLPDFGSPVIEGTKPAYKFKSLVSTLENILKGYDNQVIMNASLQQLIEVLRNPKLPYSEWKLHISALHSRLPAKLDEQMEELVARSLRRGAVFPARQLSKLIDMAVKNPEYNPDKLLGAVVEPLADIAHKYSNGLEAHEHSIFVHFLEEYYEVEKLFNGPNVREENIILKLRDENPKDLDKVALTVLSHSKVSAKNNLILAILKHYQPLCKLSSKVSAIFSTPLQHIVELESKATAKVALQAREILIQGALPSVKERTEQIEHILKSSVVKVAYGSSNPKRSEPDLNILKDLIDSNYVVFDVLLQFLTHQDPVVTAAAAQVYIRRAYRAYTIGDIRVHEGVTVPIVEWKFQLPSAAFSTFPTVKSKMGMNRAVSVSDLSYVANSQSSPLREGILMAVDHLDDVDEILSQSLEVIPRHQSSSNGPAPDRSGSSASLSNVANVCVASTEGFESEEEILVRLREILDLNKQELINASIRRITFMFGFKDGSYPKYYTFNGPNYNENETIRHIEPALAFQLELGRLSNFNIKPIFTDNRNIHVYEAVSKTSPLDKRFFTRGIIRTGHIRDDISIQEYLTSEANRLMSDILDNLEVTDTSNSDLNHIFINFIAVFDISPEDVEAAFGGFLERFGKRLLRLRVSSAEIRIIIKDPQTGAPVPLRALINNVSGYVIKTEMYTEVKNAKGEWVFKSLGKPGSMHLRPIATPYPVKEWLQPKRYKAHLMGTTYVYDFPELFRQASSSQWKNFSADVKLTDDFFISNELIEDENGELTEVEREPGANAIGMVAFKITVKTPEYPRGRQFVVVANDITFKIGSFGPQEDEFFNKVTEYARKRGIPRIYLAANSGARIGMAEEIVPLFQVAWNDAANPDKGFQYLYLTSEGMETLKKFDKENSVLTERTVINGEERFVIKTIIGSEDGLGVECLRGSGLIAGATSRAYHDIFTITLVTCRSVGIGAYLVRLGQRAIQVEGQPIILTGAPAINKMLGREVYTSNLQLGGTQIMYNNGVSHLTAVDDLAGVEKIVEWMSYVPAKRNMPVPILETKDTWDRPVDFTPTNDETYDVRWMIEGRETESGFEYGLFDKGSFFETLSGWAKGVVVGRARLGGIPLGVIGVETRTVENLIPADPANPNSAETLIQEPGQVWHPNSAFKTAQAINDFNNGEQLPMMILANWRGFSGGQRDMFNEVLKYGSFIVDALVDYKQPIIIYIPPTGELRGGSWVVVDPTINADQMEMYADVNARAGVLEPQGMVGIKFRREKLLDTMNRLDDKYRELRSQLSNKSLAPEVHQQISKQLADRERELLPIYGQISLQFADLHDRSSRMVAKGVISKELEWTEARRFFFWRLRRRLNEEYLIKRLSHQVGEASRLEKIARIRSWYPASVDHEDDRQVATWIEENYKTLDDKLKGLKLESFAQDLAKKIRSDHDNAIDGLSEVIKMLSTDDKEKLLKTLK

Row | Compound | Concentration at 90% Inhibition St ([1]; Table 4b) | IC90 ([1]; Table 4a) [µg/mL] | IC90 ([2]; Table 4a) [µg/mL] | IC90 ([2]; Table 4b) [µg/mL] | IC90 ([3]; Table 4a) [µg/mL] | IC90 ([3]; Table 4b) [µg/mL] | IC90 ([4]; Table 4a) [µg/mL] | IC90 ([4]; Table 4b) [µg/mL] | IC90 ([5]; Table 4a) [µg/mL] | IC90 ([5]; Table 4b) [µg/mL] | IC90 ([6]; Table 4a) [µg/mL] | IC90 ([6]; Table 4b) [µg/mL] | IC90 ([7]; Table 4a) [µg/mL] | IC90 ([7]; Table 4b) [µg/mL] | IC90 ([8]; Table 4a) [µg/mL] | IC50 [9] [nM] | IC50 [10] [nM] | MIC [11] [µg/mL] | MIC [12] [µg/mL] | MIC [13] [µg/mL] | other results
1 | COc1ccc(F)cc1[C@H](Cn1c(=O)n(C(C)(C)C(=O)N2CCCC2)c(=O)c2c(C)c(-n3cccn3)sc21)OC[C@H](C)O [Compound I-40, 1-((R)-2-(5-fluoro-2-methoxyphenyl)-2-((S)-2-hydroxy-propoxy)ethyl)-5-methyl-3-(2-methyl-1-oxo-1-(pyrrolidin-1-yl)propan-2-yl)-6-(1H-pyrazol-1-yl)thieno[2,3-d]pyrimidine-2,4(1H,3H)-dione] | D (“D” provided a compound concentration of >50 ppm at 90% inhibition of fungal pathogens) | > 50 | > 50 | 10 (≈ 16.3 µM) | 10 (≈ 16.3 µM) | 2 (≈ 3.26 µM) | > 50 | 10 (≈ 16.3 µM) | 2 (≈ 3.26 µM) | 2 (≈ 3.26 µM) | > 50 | 10 (≈ 16.3 µM) | > 50 | > 50 | > 50 | 0.6 to 3 | 10 to 40 | 0.25 to 1 (≈ 0.407 to 1.63 µM) | 2.1 to 4 (≈ 3.42 to 6.52 µM) | > 4.1 | Concentration at 90% Inhibition Pc ([8]; Table 4b): D (“D” provided a compound concentration of >50 ppm at 90% inhibition of fungal pathogens)
2 | COc1ccc(F)cc1[C@H](Cn1c(=O)n(C(C)(C)C(=O)N2CCCC2)c(=O)c2c(C)c(-n3cccn3)sc21)OCC(C)(C)O [Compound I-42, (R)-1-(2-(5-fluoro-2-methoxyphenyl)-2-(2-hydroxy-2-methylpropoxy)ethyl)-5-methyl-3-(2-methyl-1-oxo-1-(pyrrolidin-1-yl)propan-2-yl)-6-(1H-pyrazol-1-yl)thieno[2,3-d]pyrimidine-2,4(1H,3H)-dione] | D (“D” provided a compound concentration of >50 ppm at 90% inhibition of fungal pathogens) | > 50 | > 50 | 10 (≈ 15.9 µM) | 10 (≈ 15.9 µM) | 2 (≈ 3.19 µM) | > 50 | 10 (≈ 15.9 µM) | 0.4 (≈ 0.637 µM) | 0.4 (≈ 0.637 µM) | > 50 | 10 (≈ 15.9 µM) | > 50 | 10 (≈ 15.9 µM) | > 50 | 0.6 to 3 | 3 to 10 | 2.1 to 4 (≈ 3.35 to 6.37 µM) | > 4.1 | 2.1 to 4 (≈ 3.35 to 6.37 µM) | Concentration at 90% Inhibition Pc ([8]; Table 4b): D (“D” provided a compound concentration of >50 ppm at 90% inhibition of fungal pathogens)
3 | COc1ccc(F)cc1[C@H](Cn1c(=O)n(C(C)(C)C(=O)N2CCCC2)c(=O)c2c(C)c(-n3cccn3)sc21)OC[C@@H](C)O [Compound I-37, 1-((R)-2-(5-fluoro-2-methoxyphenyl)-2-((R)-2-hydroxy-propoxy)ethyl)-5-methyl-3-(2-methyl-1-oxo-1-(pyrrolidin-1-yl)propan-2-yl)-6-(1H-pyrazol-1-yl)thieno[2,3-d]pyrimidine-2,4(1H,3H)-dione] | D (“D” provided a compound concentration of >50 ppm at 90% inhibition of fungal pathogens) | > 50 | 2 (≈ 3.26 µM) | 2 (≈ 3.26 µM) | 10 (≈ 16.3 µM) | 2 (≈ 3.26 µM) | > 50 | 10 (≈ 16.3 µM) | 0.4 (≈ 0.652 µM) | 0.4 (≈ 0.652 µM) | 2 (≈ 3.26 µM) | 2 (≈ 3.26 µM) | > 50 | 10 (≈ 16.3 µM) | > 50 | 0.6 to 3 | 3 to 10 | 1.1 to 2 (≈ 1.79 to 3.26 µM) | 2.1 to 4 (≈ 3.42 to 6.52 µM) | 2.1 to 4 (≈ 3.42 to 6.52 µM) | Concentration at 90% Inhibition Pc ([8]; Table 4b): D (“D” provided a compound concentration of >50 ppm at 90% inhibition of fungal pathogens)
4 | COc1ccccc1[C@H](Cn1c(=O)n(C(C)(C)C(=O)N2CCCC2)c(=O)c2c(C)c(-n3cccn3)sc21)OC(C)C [Compound I-18, (R)-1-(2-isopropoxy-2-(2-methoxyphenyl)ethyl)-5-methyl-3-(2-methyl-1-oxo-2-(pyrrolidin-1-yl)propan-2-yl)-6-(H-pyrazol-1-yl)thieno[2,3-d]pyrimidine-2,4(1H,3H)-dione] | D (“D” provided a compound concentration of >50 ppm at 90% inhibition of fungal pathogens) | > 50 | 2 (≈ 3.45 µM) | 2 (≈ 3.45 µM) | 0.4 (≈ 0.69 µM) | 0.4 (≈ 0.69 µM) | 2 (≈ 3.45 µM) | 2 (≈ 3.45 µM) | 0.08 (≈ 0.138 µM) | 0.08 (≈ 0.138 µM) | 0.4 (≈ 0.69 µM) | 0.4 (≈ 0.69 µM) | 2 (≈ 3.45 µM) | 2 (≈ 3.45 µM) | > 50 | 0.6 to 3 | 3 to 10 | 2.1 to 4 (≈ 3.62 to 6.9 µM) | 2.1 to 4 (≈ 3.62 to 6.9 µM) | 1.1 to 2 (≈ 1.9 to 3.45 µM) | Concentration at 90% Inhibition Pc ([8]; Table 4b): D (“D” provided a compound concentration of >50 ppm at 90% inhibition of fungal pathogens)
5 | COc1ccc(F)cc1[C@@H](O)Cn1c(=O)n(C(C)(C)C(=O)O)c(=O)c2c(C)c(-n3cccn3)sc21 [Compound I-85] | – | – | – | > 50 | – | 10 (≈ 19.9 µM) | – | > 50 | – | 10 (≈ 19.9 µM) | – | > 50 | – | > 50 | – | 0.6 to 3 | 10 to 40 | 0.25 to 1 (≈ 0.497 to 1.99 µM) | 0.25 to 1 (≈ 0.497 to 1.99 µM) | 2.1 to 4 (≈ 4.18 to 7.96 µM) | IC90 ([1]; Table 4b): > 50 µg/mL; IC90 ([8]; Table 4b): > 50 µg/mL
6 | COCCO[C@@H](Cn1c(=O)n([C@H](C)C(=O)N2CCCC2)c(=O)c2c(C)c(-n3cccn3)sc21)c1cc(F)ccc1OC [Compound I-76, 1-((R)-2-(5-fluoro-2-methoxyphenyl)-2-(2-methoxyethoxy)ethyl)-5-methyl-3-((R)-1-oxo-1-(pyrrolidin-1-yl)propan-2-yl)-6-(1H-pyrazol-1-yl)thieno[2,3-d]pyrimidine-2,4(1H,3H)-dione] | – | – | – | > 50 | – | > 50 | – | > 50 | – | 2 (≈ 3.34 µM) | – | > 50 | – | > 50 | – | 3 to 10 | > 40 | > 4.1 | > 4.1 | > 4.1 | IC90 ([1]; Table 4b): > 50 µg/mL; IC90 ([8]; Table 4b): > 50 µg/mL
